# Source: patent US9526730B2, “Use of a DPP-4 inhibitor in podocytes related disorders and/or nephrotic syndrome” (Boehringer Ingelheim International GmbH, priority 2012, dated 2016)
# Experiments:
# diabetic db/db mice = test: Diabetic nephropathy model: male diabetic db/db mice treated for 12 weeks (renal histology, immunohistochemistry, albumin excretion); assay type: in vivo, mouse; settings: for effect on fasted or post-prandial glucose levels / Podocalyxin expression (glomerular staining score 0-3): 12 weeks; for Podocalyxin expression (glomerular staining score 0-3): linagliptin 3 mg/kg/day, enalapril 20 mg/kg/day, db/db vehicle 1.59±0.2, db/+ 2.65±0.1; for glomerular mesangial matrix expansion compared with diabetic vehicle / tubulointerstitial fibrosis compared with diabetic vehicle: histology
# Description: The expression of podocalyxin is analyzed by immunohistochemistry using a podocalyxin specific antibody. Kidney sections from male diabetic db/db mice (10 weeks old at start and treated for 3 months) in the following groups are analyzed:
# Diabetic control (n=10), linagliptin 3 mg/kg (n=8), enalapril 20 mg/kg (n=10) and heterozygous control mice (n=8).
# All of the evaluations of the glomerular staining intensities are done semiquantitatively by two different experts of kidney pathology blinded for the slides.
# The predefined scoring gradient is 0, 1, 2, and 3. 0 means no expression, whereas 3 is given when expression is highest. Group means are compared with a non-parametric test. P values less than 0.05 are considered significant.
# Diabetic nephropathy is the main cause of end-stage renal disease. This study investigated the effects of linagliptin on diabetic nephropathy in severe insulin-resistant and old db/db mice as a model for diabetic nephropathy. Male diabetic db/db mice (10 weeks) were divided into 3 groups and treated for 12 weeks with vehicle (n=10), linagliptin 3 mg/kg/day (n=8), or the angiotensin converting enzyme (ACE) inhibitor enalapril 20 mg/kg/day (n=10).
# Heterozygous db/+ mice treated with vehicle were used as controls (n=8). Levels of glucose, triglycerides, insulin, cystatin C and creatinine were analyzed in serum and urine samples at baseline and monthly thereafter. Body weight, urinary albumin excretion and OGTT were monitored periodically.
# Renal histology (glomerulosclerosis, tubulointerstitial fibrosis) and expression of the sialoglycoprotein podocalyxin (a marker of podocyte integrity in the glomeruli, marker for glomerular damage), glucagon-like peptide 1 receptor (GLP-1R), alpha-smooth muscle actin and type I collagen were evaluated at the end of the study.
# [1] = system: rats with 5/6 nephrectomy; test: Rat model of chronic kidney disease (5/6 nephrectomy), 130 days; settings: for glomerulosclerosis (glomerulosclerosic index) / decrease of glomerular size vs PBO-treated 5/6 NX rats / decrease of interstitial fibrosis vs PBO-treated 5/6 NX rats: 130 days; for osteopontin vs PBO-treated 5/6 NX rats: plasma biomarker
# [2] = Pharmacokinetics of BI 1356, multiple oral doses once daily for 12 days in patients with type 2 diabetes; settings: for feT,ss: steady state (Day 12); for feT,ss / fe0-24: gMean; for fe0-24: fraction excreted in urine
# [3] = Meta-analysis of 13 phase 3 placebo-controlled trials: renal safety and outcomes in 5466 patients with type 2 diabetes
# Description: The aim of this study was to evaluate renal safety/outcomes with linagliptin in phase 3, randomized, double-blind, placebo-controlled trials (≧12 wks).
# [4] = Pooled analysis of seven placebo-controlled trials: UACR in elderly (>=65 years) T2D patients with diabetic nephropathy (set 2); assay type: in vivo, human
# Description: (§1) Seven randomised, double-blind, placebo-controlled trials (duration 24-52 weeks) of linagliptin (5 mg q.d.) as monotherapy or add-on to various glucose-lowering background therapies had data available for urinary albumin-to-creatinine ratio (UACR) and were eligible for this analysis (n=4113). Data after 24 weeks of treatment were generated to allow pooling and two sets were defined: 1) Diabetic nephropathy in earlier stages of T2D (with and without oral glucose-lowering background therapies, such as e.g. linagliptin monotherapy, linagliptin add-on to metformin or linagliptin add-on to metformin plus a sulphonylurea, or linagliptin plus metformin initial combination): participants from four 24-week pivotal phase III trials if they had persistent albuminuria, defined as 30≦UACR≦3000 mg/g (eGFR>30 ml/min/1.73 m^2) and stable treatment with an angiotensin-converting enzyme inhibitor (ACEi) or angiotensin II receptor blocker (ARB) at baseline (ongoing treatment with ACEi or ARB); 2) Diabetic nephropathy in elderly patients (various glucose-lowering background therapies including insulin, such as e.g. linagliptin monotherapy, linagliptin add-on to metformin or linagliptin add-on to metformin plus a sulphonylurea, or linagliptin plus metformin initial combination, or linagliptin in combination with basal insulin): patients from all seven trials, fulfilling UACR criteria 30≦UACR≦3000 mg/g (eGFR>30 ml/min/1.73 m^2) and aged ≧65 years (with or without ongoing treatment with ACEi or ARB). The endpoint in both sets was the percentage change in geometric mean UACR after 24 weeks.
# [5] = Safety and tolerability in people with type 2 diabetes
# [6] = Pooled analysis of four 24-week placebo-controlled trials: albuminuria (UACR) in T2D patients with early diabetic nephropathy on stable ACE/ARB (set 1); assay type: in vivo, human
# Text: Despite optimal therapy, people with type 2 diabetes (T2D) remain at high risk for kidney damage, manifest as albuminuria, and many develop progressive renal failure. Further, despite optimal therapy with inhibitors of the renin-angiotensin-aldosterone systeme (RAAS), patients with type 2 diabetes mellitus (T2DM) remain at an increased risk of progressive renal failure and cardiovascular disease, for which album inuria has emerged as a predictive biomarker. Linagliptin, a DPP-4 inhibitor, has previously shown evidence of albumin lowering on top of telmisartan in mice. We explored the clinical effect of linagliptin on albuminuria in T2D patients with early diabetic nephropathy. Four randomized, double-blind, 24-week, placebo-controlled trials of linagliptin (5 mg qd) on no, mono, or dual oral glucose-lowering background therapy (such as e.g. linagliptin monotherapy, linagliptin add-on to metformin or linagliptin add-on to metformin plus a sulphonylurea, or linagliptin plus metformin initial combination) had data available for urinary albumin-to-creatinine ratio (UACR) and were pooled for analysis (n=2472). Participants were included in this analysis if they had: i) 30≦UACR≦3000 mg/g creatinine; ii) stable treatment with ACE/ARBs ≧4 weeks prior and during the trial; and iii) eGFR>30 ml/min/1.73 m^2. The endpoint was the percentage change in geometric mean UACR. In this analysis, 492 (19.9%) patients met UACR and eGFR thresholds of whom 46% received stable ACE/ARB therapy (linagliptin n=168; placebo n=59). Mean baseline A1C and median UACR were 8.2% vs 8.5% and 76 vs 78 mg/g creatinine for the linagliptin and placebo groups, respectively. After 24 weeks, placebo-corrected changes in A1C and FPG were −0.71% and −26 mg/dl, respectively (both p<0.0001). […] Overall, kidney function and blood pressure were unchanged although more patients on placebo received new anti-hypertensive drugs (17% vs 11% with linagliptin). […] Linagliptin may have kidney-protective properties beyond glucose-lowering effects. This protective effect may be independent of race. Linagliptin may be useful for treating or lowering albuminuria on top of standard of care of angiotensin-converting enzyme (ACE) inhibition or angiotensin II receptor blockade (ARB) in T2DM patients with early diabetic nephropathy.
# as §1
# [7] = LIN 0.083 mg/kg in chow, TEL 5 mg/kg/d in drinking water
# [8] = linagliptin 5 mg qd, after 24 weeks, set 1
compound,measurement,setting,value
"CCOC(=O)[C@H](CCc1ccccc1)N[C@@H](C)C(=O)N1CCC[C@H]1C(=O)O [enalapril, reference compound]",effect on fasted or post-prandial glucose levels,diabetic db/db mice,limited effects
same,Podocalyxin expression (glomerular staining score 0-3),diabetic db/db mice,2.4±0.2
same,glomerular mesangial matrix expansion compared with diabetic vehicle,diabetic db/db mice; p<0.05,reduced almost to control levels
same,tubulointerstitial fibrosis compared with diabetic vehicle,diabetic db/db mice; p<0.05,reduced almost to control levels
CC#CCn1c(N2CCC[C@@H](N)C2)nc2c1c(=O)n(Cc1nc(C)c3ccccc3n1)c(=O)n2C [linagliptin],Blood pressure lowering,[1]; 5/6 NX rats,unaffected
same,glomerulosclerosis (glomerulosclerosic index),[1]; 5/6 NX rats,trend towards decreased
same,decrease of glomerular size vs PBO-treated 5/6 NX rats,[1]; [7],18%
same,decrease of interstitial fibrosis vs PBO-treated 5/6 NX rats,[1]; [7],48%
same,osteopontin vs PBO-treated 5/6 NX rats,[1],decreases
same,plasma concentration of B2M vs PBO-treated 5/6 NX rats,"[1]; rat, in vivo",decreases
same,plasma concentration of TIMP-1 vs PBO-treated 5/6 NX rats,"[1]; rat, in vivo",decreases
same,"feT,ss",[2]; 1 mg oral once daily,3.34%
same,"feT,ss",[2]; 2.5 mg oral once daily,3.06%
same,fe0-24,[2]; 2.5 mg oral once daily,0.139%
same,"feT,ss",[2]; 5 mg oral once daily,6.27%
same,fe0-24,[2]; 5 mg oral once daily,0.453%
same,"feT,ss",[2]; 10 mg oral once daily,3.22%
same,fe0-24,[2]; 10 mg oral once daily,0.919%
same,"mean accumulation ratio RA,AUC",[2]; doses above 1 mg once daily,≤ 1.4
same,excretion of unchanged drug,"[2]; human, in vivo",primarily excreted unchanged via the bile
same,excretion via the kidney,[2]; therapeutic oral dose levels,< 7 % of the administered oral dose
same,main route of excretion,[2]; therapeutic oral dose levels,mainly excreted via the liver
same,patients with composite renal endpoint events (number),"[3]; linagliptin 5 mg qd, n=3505, placebo 306",448 patients
same,patients with composite renal endpoint events (proportion),"[3]; linagliptin 5 mg qd, placebo 15.6%",12.8%
same,HR for the composite endpoint,[3]; patients <65 yrs,0.77
same,HR for the composite endpoint,[3]; patients >65 yrs,1.04
same,RR change: ARF,[3]; vs placebo,−7%
same,RR change: death,[3]; vs placebo,−23%
same,RR change: macroalbuminuria,[3]; vs placebo,−12%
same,RR change: microalbuminuria,[3]; vs placebo,−15%
same,RR change: new onset of CKD,[3]; vs placebo,−56%
same,RR change: worsening of CKD,[3]; vs placebo,−24%
same,blood pressure and renal function,[4]; all seven studies,not affected to a clinically meaningful extent
same,treatment duration at which overall UACR effect occurs,[4]; as early as,12 weeks
same,reduction of UACR versus placebo (trend),"[4]; linagliptin 5 mg q.d., 24 weeks, set 2",−25%
same,lowering of adjusted UACR,"[4]; linagliptin 5 mg q.d., 24 weeks, set 2, aged >=65 years",30%
same,expression of α-smooth muscle actin-positive myofibroblasts in interstitium and glomeruli,diabetic db/db mice,normalized
same,effect on fasted or post-prandial glucose levels,diabetic db/db mice,limited effects
same,Podocalyxin expression (glomerular staining score 0-3),diabetic db/db mice,2.3±0.2
same,loss of podocytes (podocalyxin staining),diabetic db/db mice; blood glucose independent,significantly reduces
same,glomerular mesangial matrix expansion compared with diabetic vehicle,diabetic db/db mice; p<0.05,reduced almost to control levels
same,tubulointerstitial fibrosis compared with diabetic vehicle,diabetic db/db mice; p<0.05,reduced almost to control levels
same,GLP-1R expression in the glomeruli (immunohistochemical staining),"diabetic db/db mice; linagliptin 3 mg/kg/day 12 weeks, vehicle db/db 1.67±0.07, healthy 2.15±0.1",1.90±0.04
same,Urinary albumin excretion rates compared with enalapril-treated mice,diabetic db/db mice; p<0.05,significantly decreased
same,tubulointerstitial fibrosis compared with enalapril-treated mice,diabetic db/db mice; p<0.05,significantly decreased
same,safety and tolerability,[5],placebo-like
same,kidney function and blood pressure,[6]; 24 weeks,unchanged
same,lowering of adjusted UACR (geometric mean),"[6]; linagliptin 5 mg qd, 24 weeks, on stable ACE/ARB, set 1",33%
same,between group difference vs placebo in UACR,"[6]; linagliptin 5 mg qd, 24 weeks, set 1",−29%
same,placebo-corrected change in A1C (HbA1c),[6]; [8],−0.71%
same,placebo-corrected change in FPG,[6]; [8],-26 mg/dL
same,placebo-corrected change in fasting plasma glucose,[6]; [8],-1.4 mmol/L
"CCCc1nc2c(C)cc(-c3nc4ccccc4n3C)cc2n1Cc1ccc(-c2ccccc2C(=O)O)cc1 [telmisartan, reference compound]",Blood pressure lowering,[1]; 5/6 NX rats,31 mmHg
same,TGF-β expression,[1]; 5/6 NX rats,significantly decreases
same,glomerulosclerosis (glomerulosclerosic index),[1]; 5/6 NX rats,trend towards decreased
same,decrease of urinary albumin/creatinine ratio vs PBO-treated 5/6 NX rats,[1]; [7],92%
same,decrease of glomerular size vs PBO-treated 5/6 NX rats,[1]; [7],not significantly
same,decrease of interstitial fibrosis vs PBO-treated 5/6 NX rats,[1]; [7],24%
same,osteopontin vs PBO-treated 5/6 NX rats,[1],significantly decreases
